Assay results: patent US20250171420A1 (Monte Rosa Therapeutics, Inc., priority 2022, published 2025)
Like-named read-outs stand apart in the source and are kept apart here.

Tests used:
[1] = tested on: GP2D cell line; experiment: Growth inhibition, CyQUANT Direct Cell Proliferation Assay, GP2D; assay type: cell-based
Method: (§1) SKCO1, LS180, and LS174T cell lines were purchased from ATCC. CW2 cell line was purchased from Riken. GP2D cell line was purchased from Sigma/ECACC. All cell lines were cultured in manufacturer's recommended media at 37° C., 5% CO2. Briefly, cells were suspended in 200 μL of media and seeded at 300 to 1,800 cells per well in tissue culture treated 96-well plates with black walls and clear bottom. Plates were incubated overnight and initial (To) read was performed the following day using CyQUANT Direct Cell Proliferation Assay Kit (Thermo Fisher Scientific) according to manufacturer's protocol. All compounds were solubilized in DMSO and prepared at 3-fold serial dilution, using 9 points starting at 30 μM as highest concentration, administered to cells and incubated for 120 to 168 hours, at which point CyQUANT assay measurement was performed using Acumen Cellista instrument (Ex/Em 480/520 nm). Media-only wells were used as blank, and 0.3% DMSO was used as DMSO-treated cell control. Growth inhibition (percent response) was calculated using the following formula in Excel: “=if ([Compound treated Day N]>[Untreated Day 0, AVG], ([Compound treated Day N]−[Untreated Day 0, AVG])/([Untreated Day N]−[Untreated Day 0, AVG])*100, ([Compound Treated Day N]−[Untreated Day 0, AVG])/([Untreated Day 0, AVG])*100)”. GI50 is the response corresponding to the 50% of untreated control.
(§2) GI50 data are reported in Tables 4a, 4b, 4c, 4d, and 4e for compounds in Table 1. In Tables 4a, 4b, 4c, 4d, and 4e below, According to the code, A represents a GI50 value of ≤0.1 μM, B represents a GI50 value>0.1 μM and ≤1 μM, C represents an GI50 value>1 μM.

[2] = tested on: LS180 cell line; experiment: Growth inhibition, CyQUANT Direct Cell Proliferation Assay, LS180; assay type: cell-based; conditions: Homo sapiens
Method: as §1, §2

[3] = target: CRBN/DDB1 (Homo sapiens, UniProt Q96SW2); experiment: HTRF binding assay (displacement of Cy5-thalidomide probe from CRBN/DDB1); conditions: CRBN/DDB1 2.5 nM, Cy5-Thalidomide 100 nM, 30 min; geometric mean; read-out: HTRF_Thali_Disp_DR_geo_IC50
Sequence of CRBN/DDB1 (Q96SW2 whole entry, species assumed): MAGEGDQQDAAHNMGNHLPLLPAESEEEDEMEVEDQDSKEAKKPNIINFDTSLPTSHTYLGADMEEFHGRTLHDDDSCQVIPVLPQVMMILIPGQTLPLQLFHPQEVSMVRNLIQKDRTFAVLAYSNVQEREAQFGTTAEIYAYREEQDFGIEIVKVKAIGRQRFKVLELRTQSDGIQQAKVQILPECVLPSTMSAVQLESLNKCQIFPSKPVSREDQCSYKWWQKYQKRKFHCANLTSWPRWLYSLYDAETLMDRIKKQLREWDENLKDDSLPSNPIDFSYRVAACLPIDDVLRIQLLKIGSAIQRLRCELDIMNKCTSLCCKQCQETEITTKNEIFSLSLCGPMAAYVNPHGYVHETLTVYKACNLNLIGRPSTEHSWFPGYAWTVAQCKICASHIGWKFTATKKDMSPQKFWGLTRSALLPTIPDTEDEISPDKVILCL
Sequence of CRBN/DDB1 (Q16531 whole entry partner, species assumed): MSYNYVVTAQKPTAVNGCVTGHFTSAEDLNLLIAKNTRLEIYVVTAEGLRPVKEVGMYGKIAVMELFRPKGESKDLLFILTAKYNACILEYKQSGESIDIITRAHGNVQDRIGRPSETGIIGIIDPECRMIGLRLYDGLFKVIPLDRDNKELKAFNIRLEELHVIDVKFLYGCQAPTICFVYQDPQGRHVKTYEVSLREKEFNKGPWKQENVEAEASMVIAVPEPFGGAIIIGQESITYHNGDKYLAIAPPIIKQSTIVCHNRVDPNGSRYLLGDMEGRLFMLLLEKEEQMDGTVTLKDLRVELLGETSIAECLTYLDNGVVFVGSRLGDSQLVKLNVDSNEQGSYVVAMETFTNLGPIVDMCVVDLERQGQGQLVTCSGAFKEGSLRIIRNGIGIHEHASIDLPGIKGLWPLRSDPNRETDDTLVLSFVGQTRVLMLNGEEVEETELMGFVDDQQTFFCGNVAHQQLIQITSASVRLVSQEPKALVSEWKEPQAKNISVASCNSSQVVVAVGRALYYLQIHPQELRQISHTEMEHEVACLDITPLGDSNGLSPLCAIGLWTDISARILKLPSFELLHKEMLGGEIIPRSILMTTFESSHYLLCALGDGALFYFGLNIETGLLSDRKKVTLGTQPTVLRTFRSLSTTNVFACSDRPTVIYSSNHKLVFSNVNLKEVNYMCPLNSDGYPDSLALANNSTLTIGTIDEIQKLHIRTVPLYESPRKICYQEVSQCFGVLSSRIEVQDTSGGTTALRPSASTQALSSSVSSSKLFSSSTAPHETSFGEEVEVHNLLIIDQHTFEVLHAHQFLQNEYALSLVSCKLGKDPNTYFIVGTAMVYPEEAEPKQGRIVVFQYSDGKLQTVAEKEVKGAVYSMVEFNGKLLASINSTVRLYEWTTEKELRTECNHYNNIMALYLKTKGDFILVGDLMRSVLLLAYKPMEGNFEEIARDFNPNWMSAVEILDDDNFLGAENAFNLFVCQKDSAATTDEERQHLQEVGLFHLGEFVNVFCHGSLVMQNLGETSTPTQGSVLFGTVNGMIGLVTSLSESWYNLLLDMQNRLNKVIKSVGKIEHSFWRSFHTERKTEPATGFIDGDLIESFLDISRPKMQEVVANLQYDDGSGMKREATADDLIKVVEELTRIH
Procedure, shortened: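 Compounds in a 10-point threefold dilution series were incubated 30 min at ambient temperature with 2.5 nM CRBN/DDB1, 100 nM Cy5-thalidomide probe and terbium anti-His donor (HEPES/NaCl/TCEP/EDTA/Tween20 buffer). IC50 came from 4-parameter fits of the 665/620 nm HTRF ratio; Ki used Cheng-Prusoff on geometric-mean IC50.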

[4] = target: T1, CK1α (Homo sapiens, UniProt P48729); experiment: CK1α NanoBit Assay (HiBiT-tagged CSNK1A1, HEK293 clonal lines); assay type: cell-based; conditions: HEK293 HiBiT-CSNK1A1/LgBiT cells, 24 h incubation
T1 construct: HEK293 clonal lines with CRISPR KI HiBiT tag on CSNK1A1
T1 sequence (P48729 whole entry): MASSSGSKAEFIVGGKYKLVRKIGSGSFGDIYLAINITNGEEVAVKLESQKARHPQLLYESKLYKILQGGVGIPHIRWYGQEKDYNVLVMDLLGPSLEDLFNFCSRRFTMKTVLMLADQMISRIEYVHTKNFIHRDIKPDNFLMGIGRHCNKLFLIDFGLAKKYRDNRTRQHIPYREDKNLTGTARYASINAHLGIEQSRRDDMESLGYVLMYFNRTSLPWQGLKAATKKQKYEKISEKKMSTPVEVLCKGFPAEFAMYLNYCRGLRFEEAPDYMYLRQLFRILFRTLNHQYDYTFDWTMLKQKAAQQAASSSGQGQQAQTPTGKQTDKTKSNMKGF
T1 sequence (Q96SW2 whole entry, further chain): as the sequence (Q96SW2 whole entry, species assumed) above
T1 sequence (Q16531 2-1140 partner limits assumed): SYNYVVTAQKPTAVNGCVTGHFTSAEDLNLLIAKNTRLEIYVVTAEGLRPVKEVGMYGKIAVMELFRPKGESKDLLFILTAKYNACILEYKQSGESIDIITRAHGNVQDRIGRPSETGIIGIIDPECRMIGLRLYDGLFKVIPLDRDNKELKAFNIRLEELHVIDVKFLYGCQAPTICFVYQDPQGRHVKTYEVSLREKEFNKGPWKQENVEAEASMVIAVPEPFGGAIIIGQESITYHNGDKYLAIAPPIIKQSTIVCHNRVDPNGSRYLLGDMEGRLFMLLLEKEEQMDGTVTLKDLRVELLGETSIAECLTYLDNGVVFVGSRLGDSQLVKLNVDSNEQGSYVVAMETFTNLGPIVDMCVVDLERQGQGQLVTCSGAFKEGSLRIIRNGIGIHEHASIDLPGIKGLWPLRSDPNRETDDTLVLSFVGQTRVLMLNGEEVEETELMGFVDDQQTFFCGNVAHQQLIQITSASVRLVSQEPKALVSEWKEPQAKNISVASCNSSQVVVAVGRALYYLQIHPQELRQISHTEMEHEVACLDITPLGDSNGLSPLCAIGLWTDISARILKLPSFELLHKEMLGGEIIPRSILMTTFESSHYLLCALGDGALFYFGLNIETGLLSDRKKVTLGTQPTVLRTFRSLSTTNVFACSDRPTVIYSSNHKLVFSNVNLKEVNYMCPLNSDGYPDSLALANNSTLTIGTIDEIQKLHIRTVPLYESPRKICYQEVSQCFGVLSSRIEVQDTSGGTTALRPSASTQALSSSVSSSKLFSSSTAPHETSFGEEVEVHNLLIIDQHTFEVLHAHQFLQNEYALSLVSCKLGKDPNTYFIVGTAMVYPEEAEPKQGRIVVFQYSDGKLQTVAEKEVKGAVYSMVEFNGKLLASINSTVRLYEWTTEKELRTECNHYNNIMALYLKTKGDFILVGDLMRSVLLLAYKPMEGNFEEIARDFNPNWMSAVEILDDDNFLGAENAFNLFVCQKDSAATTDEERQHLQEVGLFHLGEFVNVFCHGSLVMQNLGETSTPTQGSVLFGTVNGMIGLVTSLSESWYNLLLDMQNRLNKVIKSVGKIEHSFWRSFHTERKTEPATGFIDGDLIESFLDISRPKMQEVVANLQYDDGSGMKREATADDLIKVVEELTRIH
Procedure, shortened: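 HEK293 clones carrying a CRISPR knock-in HiBiT tag on CSNK1A1 and stably expressing LgBiT are treated with compound for 24 hours at 37° C, 5% CO2, then read by luminescence. Response is normalized as 100*(S−N)/(P−N) against plate negative and positive controls, and DC50 values are derived.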

[5] = tested on: LS174T cell line; experiment: Growth inhibition, CyQUANT Direct Cell Proliferation Assay, LS174T; assay type: cell-based; conditions: Homo sapiens
Method: as §1, §2

[6] = tested on: SKCO1 cell line; experiment: Growth inhibition, CyQUANT Direct Cell Proliferation Assay, SKCO1; assay type: cell-based; conditions: Homo sapiens
Method: as §1, §2

[7] = tested on: CW2 cell line; experiment: Growth inhibition, CyQUANT Direct Cell Proliferation Assay, CW2; assay type: cell-based; conditions: Homo sapiens
Method: as §1, §2

[8] = LS180, read-out: LS180 GI50 (μM)
[9] = SK-CO-1, read-out: SKCO1 GI50 (μM)
[10] = GP2D, 120 to 168 hours, read-out: GP2D GI50
[11] = LS180, 120 to 168 hours, read-out: LS180 GI50
[12] = 120 to 168 hours, read-out: LS174T GI50
[13] = SK-CO-1, SKCO1, 120 to 168 hours, read-out: SKCO1 GI50
[14] = CW-2, CW2, 120 to 168 hours, read-out: CW2 GI50

| SMILES | GI50 ([1]; GP2d, read-out: GP2D GI50 (μM)) [µM] | GI50 [2, 8] [µM] | IC50 [3] [nM] | DC50 [4] [µM] | GI50 ([5]; read-out: LS174T GI50 (μM)) [µM] | GI50 [6, 9] [µM] | GI50 ([7]; CW-2, read-out: CW2 GI50 (μM)) [µM] | GI50 [1, 10] [µM] | GI50 [2, 11] [µM] | GI50 [5, 12] [µM] | GI50 [6, 13] [µM] | GI50 [7, 14] [µM] |
| --- | --- | --- | --- | --- | --- | --- | --- | --- | --- | --- | --- | --- |
| O=C1CCC(N2Cc3cc(NC(=O)N4CCc5cc(F)ccc54)ccc3C2=O)C(=O)N1 (stereo not drawn) [Compound 178, N-(2-(2,6-dioxopiperidin-3-yl)-1-oxoisoindolin-5-yl)-5-fluoroindoline-1-carboxamide] | 0.1 to 1 | 0.1 to 1 | 100 to 1000 | < 0.1 | 0.1 to 1 | 0.1 to 1 | 0.1 to 1 |  |  |  |  |  |
| O=C1CCC(N2Cc3cc(NC(=O)N4CCc5cc(C(F)(F)F)ccc54)ccc3C2=O)C(=O)N1 (stereo not drawn) [Compound 185, N-(2-(2,6-dioxopiperidin-3-yl)-1-oxoisoindolin-5-yl)-5-(trifluoromethyl)indoline-1-carboxamide] | 0.1 to 1 | 0.1 to 1 | 100 to 1000 | < 0.1 | 0.1 to 1 | 0.1 to 1 | 0.1 to 1 |  |  |  |  |  |
| O=C1CCC(N2Cc3cc(NC(=O)N4CCc5ccc(F)cc54)ccc3C2=O)C(=O)N1 (stereo not drawn) [Compound 186, N-(2-(2,6-dioxopiperidin-3-yl)-1-oxoisoindolin-5-yl)-6-fluoroindoline-1-carboxamide] | < 0.1 | < 0.1 | 100 to 1000 | < 0.1 | < 0.1 | < 0.1 | < 0.1 |  |  |  |  |  |
| O=C1CCC(N2Cc3cc(NC(=O)N4CC5(CCOCC5)c5ccccc54)ccc3C2=O)C(=O)N1 (stereo not drawn) [Compound 189] |  |  | 100 to 1000 | < 0.1 |  |  |  | < 0.1 | < 0.1 | < 0.1 | < 0.1 | < 0.1 |
| Cc1ccc2c(c1)N(C(=O)Nc1ccc3c(c1)CN(C1CCC(=O)NC1=O)C3=O)CC2 (stereo not drawn) [Compound 190, N-(2-(2,6-dioxopiperidin-3-yl)-1-oxoisoindolin-5-yl)-6-methylindoline-1-carboxamide] | 0.1 to 1 | 0.1 to 1 | 100 to 1000 | < 0.1 | 0.1 to 1 | 0.1 to 1 | 0.1 to 1 |  |  |  |  |  |
| Cc1cccc2c1CCN2C(=O)Nc1ccc2c(c1)CN(C1CCC(=O)NC1=O)C2=O (stereo not drawn) [Compound 198, N-(2-(2,6-dioxopiperidin-3-yl)-1-oxoisoindolin-5-yl)-4-methylindoline-1-carboxamide] |  |  | 100 to 1000 | < 0.1 |  |  |  | < 0.1 | 0.1 to 1 | 0.1 to 1 | < 0.1 | < 0.1 |
| O=C1CCC(N2Cc3cc(NC(=O)N4CCc5c(F)cccc54)ccc3C2=O)C(=O)N1 (stereo not drawn) [Compound 201, N-(2-(2,6-dioxopiperidin-3-yl)-1-oxoisoindolin-5-yl)-4-fluoroindoline-1-carboxamide] |  |  | > 1000 | < 0.1 |  |  |  | < 0.1 | 0.1 to 1 | < 0.1 | < 0.1 | < 0.1 |
| CC1Cc2ccccc2CN1C(=O)Nc1ccc2c(c1)CN(C1CCC(=O)NC1=O)C2=O (stereo not drawn) [Compound 205, N-(2-(2,6-dioxopiperidin-3-yl)-1-oxoisoindolin-5-yl)-3-methyl-3,4-dihydroisoquinoline-2(1H)-carboxamide] | < 0.1 | 0.1 to 1 | 100 to 1000 | < 0.1 | 0.1 to 1 | < 0.1 | < 0.1 |  |  |  |  |  |
| O=C1CCC(N2Cc3cc(NC(=O)N4CC5(CC5)c5ccccc54)ccc3C2=O)C(=O)N1 (stereo not drawn) [Compound 210, N-(2-(2,6-dioxopiperidin-3-yl)-1-oxoisoindolin-5-yl)spiro[cyclopropane-1,3′-indoline]-1′-carboxamide] | < 0.1 | 0.1 to 1 | 100 to 1000 | < 0.1 | < 0.1 | < 0.1 | < 0.1 |  |  |  |  |  |
